Measurements: patent publication US8158621B2, “Methods of treating or preventing autoimmune diseases with 2,4-pyrimidinediamine compounds” (Rigel Pharmaceuticals, Inc., priority 2002, dated 2012)
Like-named read-outs stand apart in the source and are kept apart here.

Tested on: Human Jurkat T-cells (clone N)
Experiment: Jurkat T-cell activation (anti-TCR, CD69 upregulation)
Type: cell-based
Procedure, shortened: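 Jurkat cells in RPMI + 5% FBS preincubated with compound 1 h at 37 °C, then stimulated with anti-TCR C305 at 500 ng/ml for 20 h. CD69 surface expression stained with anti-CD69-APC and read by flow cytometry; IC50 versus solvent-only control.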

Compound | IC50 | IC50 (Homo sapiens, Jurkat) | further results
CCOC(=O)C(C)(C)Oc1cccc(Nc2ncc(F)c(Nc3ccc4c(c3)OCCO4)n2)c1 [Compound R926907] | 17.1 µM | – | –
CCOC(=O)C(C)(C)Oc1cccc(Nc2ncc(F)c(Nc3ccc(C)c(O)c3)n2)c1 [Compound R926908] | 30.6 µM | – | –
CCOC(=O)C(C)(C)Oc1cccc(Nc2ncc(F)c(Nc3ccc4cc[nH]c4c3)n2)c1 [Compound R926909] | 4.65 µM | – | –
CNC(=O)C(C)(C)Oc1cccc(Nc2ncc(F)c(Nc3cccc(O)c3)n2)c1 [Compound R926913] | 5.65 µM | – | –
CNC(=O)COc1cccc(Nc2ncc(F)c(Nc3ccc4c(c3)CNCC4)n2)c1 [Compound R926914] | > 10 µM | – | –
CNC(=O)C(C)(C)Oc1cccc(Nc2ncc(F)c(Nc3ccc4c(c3)OCCO4)n2)c1 [Compound R926915] | > 10 µM | – | –
C=CCNC(=O)Oc1cccc(Nc2nc(Nc3cccc(OCC(=O)NC)c3)ncc2F)c1 [Compound R926917] | 4.74 µM | – | –
CCOC(=O)CNC(=O)Oc1cccc(Nc2nc(Nc3cccc(OCC(=O)NC)c3)ncc2F)c1 [Compound R926918] | 4.69 µM | – | –
CCNC(=O)Oc1cccc(Nc2nc(Nc3cccc(OCC(=O)NC)c3)ncc2F)c1 [Compound R926919] | > 10 µM | – | –
CNC(=O)COc1cccc(Nc2ncc(F)c(Nc3ccc(C)c(C(F)(F)F)c3)n2)c1 [Compound R926922] | 6.12 µM | – | –
CNC(=O)COc1cccc(Nc2ncc(F)c(Nc3ccc(F)c(C)c3)n2)c1 [Compound R926923] | 7.2 µM | – | –
Cc1ccc(Nc2nc(Cl)ncc2F)cc1CNC(=O)OC(C)(C)C [Compound R926924] | 3.23 µM | – | –
CNC(=O)COc1cccc(Nc2ncc(F)c(Nc3cccc(SC(F)(F)F)c3)n2)c1 [Compound R926925] | 5.87 µM | – | –
COC(=O)COc1cc(Nc2ncc(F)c(Nc3cccc(O)c3)n2)cc(OCC(=O)OC)c1 [Compound R926926] | 13.1 µM | – | –
COC(=O)COc1cc(O)cc(Nc2ncc(F)c(Nc3cccc(O)c3)n2)c1 [Compound R926927] | 5.53 µM | – | –
CCNC(=O)Oc1cccc(Nc2ncc(F)c(Nc3cccc(O)c3)n2)c1 [Compound R926928] | – | – | IC50 (Homo sapiens): > 10 µM
CNC(=O)COc1cc(O)cc(Nc2ncc(F)c(Nc3cccc(O)c3)n2)c1 [Compound R926929] | 4 µM | – | –
CNC(=O)COc1cc(Nc2ncc(F)c(Nc3cccc(O)c3)n2)cc(OCC(=O)NC)c1 [Compound R926930] | 10.5 µM | – | –
CNC(=O)COc1cccc(Nc2ncc(F)c(Nc3ccc4[nH]ccc4c3)n2)c1 [Compound R926931] | 2.93 µM | – | –
Oc1cccc(Nc2ncc(F)c(Nc3ccc4[nH]ccc4c3)n2)c1 [Compound R926932] | – | 2.91 µM | –
CNC(=O)c1cccc(Nc2ncc(F)c(Nc3ccc4cc[nH]c4c3)n2)c1 [Compound R926933] | – | 2.79 µM | –
O=C(c1cccc(Nc2ncc(F)c(Nc3ccc4cc[nH]c4c3)n2)c1)N1CCOCC1 [Compound R926934] | 6.01 µM | – | –
CCOC(=O)C1CCN(C(=O)c2cccc(Nc3ncc(F)c(Nc4ccc5cc[nH]c5c4)n3)c2)CC1 [Compound R926935] | – | 11.8 µM | –
CNC(=O)c1cccc(Nc2ncc(F)c(Nc3cccc(O)c3)n2)c1 [Compound R926936] | – | 7.88 µM | –
CCCNC(=O)c1cccc(Nc2ncc(F)c(Nc3cccc(O)c3)n2)c1 [Compound R926937] | – | > 10 µM | –
O=C(c1cccc(Nc2ncc(F)c(Nc3cccc(O)c3)n2)c1)N1CCOCC1 [Compound R926938] | > 10 µM | – | –

Compound | IC50 | IC50 (Homo sapiens, Jurkat) | further results
CCOC(=O)C1CCN(C(=O)c2cccc(Nc3ncc(F)c(Nc4cccc(O)c4)n3)c2)CC1 [Compound R926939] | – | > 10 µM | –
CCOC(=O)C1CCN(C(=O)c2cccc(Nc3nc(Nc4cccc(O)c4)ncc3F)c2)CC1 [Compound R926940] | – | > 10 µM | –
CCOC(=O)C1CCN(C(=O)c2cccc(Nc3nc(Nc4cccc(OCC(=O)NC)c4)ncc3F)c2)CC1 [Compound R926941] | > 10 µM | – | –
CCOC1CCCc2ccc(Nc3nc(Nc4cccc(O)c4)ncc3F)cc21 (centres unmarked) [Compound R926942] | – | > 10 µM | –
Oc1cccc(Nc2ncc(F)c(Nc3ccc4c(c3)C=CCC4)n2)c1 [Compound R926943] | – | 18.5 µM | –
CNC(=O)COc1cccc(Nc2ncc(F)c(Nc3ccc4c(c3)C=CCC4)n2)c1 [Compound R926944] | 3.43 µM | – | –
COc1ccc(Nc2nc(Nc3cccc(O)c3)ncc2F)cc1Cl [Compound R926945] | – | 4.24 µM | –
CNC(=O)COc1cccc(Nc2ncc(F)c(Nc3ccc4c(c3)C(=O)CCC4)n2)c1 [Compound R926947] | 13.3 µM | – | –
Oc1cccc(Nc2ncc(F)c(Nc3ccc(Cl)nc3)n2)c1 [Compound R927018] | – | 17.7 µM | –
Oc1cccc(Nc2ncc(F)c(Nc3ccc4ncccc4c3)n2)c1 [Compound R927019] | – | > 10 µM | –
COc1ccc(-c2ccccc2)cc1Nc1ncc(C)c(Nc2cc(-c3ccccc3)ccc2OC)n1 [Compound R935000] | – | > 10 µM | –
Cc1ccc(-c2ccccc2)cc1Nc1ncc(C)c(Nc2cc(-c3ccccc3)ccc2C)n1 [Compound R935001] | > 10 µM | – | –
COc1ccc(Nc2ncc(C)c(Nc3ccc(OC)c(-c4ccccc4)c3)n2)cc1-c1ccccc1 [Compound R935002] | > 10 µM | – | –
COc1cc(-c2ccccc2)c(C)cc1Nc1ncc(C)c(Nc2cc(C)c(-c3ccccc3)cc2OC)n1 [Compound R935003] | > 10 µM | – | –
COc1ccc(C(Nc2ncc(F)c(NC(c3ccc(OC)cc3)c3ccc(OC)cc3)n2)c2ccc(OC)cc2)cc1 [Compound R935004] | – | > 10 µM | –
Fc1cnc(NC(c2ccccc2)c2ccccc2)nc1NC(c1ccccc1)c1ccccc1 [Compound R935005] | – | > 10 µM | –
Fc1cnc(NC(c2ccc(Cl)cc2)c2ccc(Cl)cc2)nc1NC(c1ccc(Cl)cc1)c1ccc(Cl)cc1 [Compound R935006] | – | > 10 µM | –
COc1ccc([C@@H](C)Nc2ncc(Br)c(N[C@H](C)c3ccc(OC)cc3)n2)cc1 [Compound R935016] | 5.36 µM | – | –
Oc1cccc(Nc2ncc(F)c(NC3c4ccccc4-c4ccccc43)n2)c1 [Compound R935020] | – | > 10 µM | –
COC(=O)c1cc(Nc2nc(Nc3cccc(O)c3)ncc2Br)cn1C [Compound R935025] | – | 7.95 µM | –
COCCOc1cccc(Nc2ncc(F)c(Nc3cccc(OCCOC)c3)n2)c1 [Compound R935076] | – | > 10 µM | –
CC(C)c1ccc(O)cc1Nc1ncc(F)c(Nc2cc(O)ccc2C(C)C)n1 [Compound R935077] | – | > 10 µM | –
COC(=O)C=C1C=CC=C(Nc2ncc(F)c(NC3=CC=CC(=CC(=O)OC)C3)n2)C1 [Compound R935114] | – | > 10 µM | –
O=C(O)Cc1cccc(Nc2ncc(F)c(Nc3cccc(CC(=O)O)c3)n2)c1 [Compound R935117] | > 10 µM | – | –
CC(C)Oc1ccc(Nc2nc(Nc3ccc(OCc4nc(-c5ccccc5)no4)cc3)ncc2F)cc1 [Compound R935135] | > 10 µM | – | –
Fc1cnc(Nc2ccc(OCc3nc(-c4ccccc4)no3)cc2)nc1Nc1ccc2c(c1)OCCO2 [Compound R935136] | > 10 µM | – | –

Compound | IC50 | IC50 (Homo sapiens, Jurkat) | further results
COC(=O)c1cc2cc(Nc3nc(Nc4ccc(OCc5nc(-c6ccccc6)no5)cc4)ncc3F)ccc2o1 [Compound R935137] | 24.1 µM | – | –
Oc1cccc(Nc2ncc(F)c(Nc3ccc(OCc4nc(-c5ccccc5)no4)cc3)n2)c1 [Compound R935138] | 0.46 µM | – | –
CC(C)Oc1ccc(Nc2ncc(F)c(Nc3ccc(OCc4nc(-c5ccccc5)no4)cc3)n2)cc1 [Compound R935139] | 11 µM | – | –
Fc1cnc(Nc2ccc3c(c2)OCCO3)nc1Nc1ccc(OCc2nc(-c3ccccc3)no2)cc1 [Compound R935140] | 2.16 µM | – | –
Cc1noc(COc2ccc(Nc3ncc(F)c(Nc4cccc(O)c4)n3)cc2)n1 [Compound R935141] | > 10 µM | – | –
Cc1noc(COc2ccc(Nc3ncc(F)c(Nc4ccc(OC(C)C)cc4)n3)cc2)n1 [Compound R935142] | 9.67 µM | – | –
Cc1noc(COc2ccc(Nc3ncc(F)c(Nc4ccc5c(c4)OCCO5)n3)cc2)n1 [Compound R935143] | 3.84 µM | – | –
Cc1noc(COc2ccc(Nc3nc(Nc4ccc5c(c4)OCCO5)ncc3F)cc2)n1 [Compound R935145] | 5.34 µM | – | –
COC(=O)c1cc2cc(Nc3ncc(F)c(Nc4ccc(OCc5nc(C)no5)cc4)n3)ccc2o1 [Compound R935146] | > 10 µM | – | –
Cc1noc(COc2ccc(Nc3nc(Nc4cccc(O)c4)ncc3F)cc2)n1 [Compound R935147] | 1.98 µM | – | –
CCOC(=O)C(C)(C)c1ccc(Nc2nc(Nc3ccc4c(c3)OCCO4)ncc2F)cc1 [Compound R935148] | > 10 µM | – | –
CC(C)(CO)c1ccc(Nc2nc(Nc3ccc4c(c3)OCCO4)ncc2F)cc1 [Compound R935149] | > 10 µM | – | –
CCOC(=O)C(C)(C)c1ccc(Nc2ncc(F)c(Nc3ccc(OC(C)C)cc3)n2)cc1 [Compound R935150] | 20.4 µM | – | –
CC(C)Oc1ccc(Nc2nc(Nc3ccc(C(C)(C)CO)cc3)ncc2F)cc1 [Compound R935151] | – | 1.96 µM | –
CCOC(=O)C(C)(C)c1ccc(Nc2ncc(F)c(Nc3cccc(O)c3)n2)cc1 [Compound R935152] | 19.9 µM | – | –
CC(C)(CO)c1ccc(Nc2ncc(F)c(Nc3cccc(O)c3)n2)cc1 [Compound R935153] | – | 7.07 µM | –
CCOC(=O)C(C)(C)c1ccc(Nc2nc(Nc3ccc(OCC(=O)OC)cc3)ncc2F)cc1 [Compound R935157] | > 10 µM | – | –
CC(C)(CO)c1ccc(Nc2nc(Nc3ccc(OCCO)cc3)ncc2F)cc1 [Compound R935158] | – | 2.47 µM | –
COC(=O)COc1ccc(Nc2ncc(F)c(Nc3ccc(OC(C)C)cc3)n2)cc1 [Compound R935159] | > 10 µM | – | –
CC(C)Oc1ccc(Nc2nc(Nc3ccc(OCCO)cc3)ncc2F)cc1 [Compound R935160] | – | 2.37 µM | –
CC(C)(CO)c1ccc(Nc2nc(Nc3cccc(OCCO)c3)ncc2F)cc1 [Compound R935161] | – | 3.13 µM | –
Fc1cnc(Nc2ccc3c(c2)OCCCO3)nc1Nc1ccc2c(c1)OCCCO2 [Compound R935162] | 3.38 µM | – | –
COC(=O)c1cc(Nc2ncc(F)c(Nc3ccc(OC(C)C)cc3)n2)cn1C [Compound R935164] | 3.32 µM | – | –
COC(=O)c1cc(Nc2nc(Nc3ccc4c(c3)OCCO4)ncc2F)cn1C [Compound R935166] | > 10 µM | – | –
CCOC(=O)C(C)(C)c1ccc(Nc2nc(Nc3ccc(OC(C)C)cc3)ncc2F)cc1 [Compound R935167] | > 10 µM | – | –
